Data published in patent US11827628B2, “Compositions and methods for inhibition of the JAK pathway” (Rigel Pharmaceuticals, Inc., priority 2005, dated 2023).
pIC50: −log10 of the molar value. Where two headings read alike, the source gives them in different places. Each block holds one compound with its values, some of them ahead of it.

Test system: IL-4 stimulated expression of CD23 in human Ramos B cells (JAK-1 and JAK-3)
Assay: Assay for Ramos B-Cell Line Stimulated with IL-4 (CD23 upregulation, FACS)
Type: cell-based
Conditions: read-out: IC50, Example 41
Description: One means of assaying for such inhibition is detection of the effect of the 2,4-substituted pyrimidinediamine compounds on the upregulation of downstream gene products. In the Ramos/IL4 assay, B-cells are stimulated with the cytokine Interleukin-4 (IL-4) leading to the activation of the JAK/Stat pathway through phosphorylation of the JAK family kinases, JAK1 and JAK3, which in turn phosphorylate and activate the transcription factor Stat-6. […] To study the effect of inhibitors (e.g., the 2,4-substituted pyrimindinediamine compounds described herein) on the JAK1 and JAK3 kinases, human Ramos B cells are stimulated with human IL-4. Twenty to 24 hours post stimulation, cells are stained for upregulation of CD23 and analyzed using flow cytometry (FACS). […] An exemplary assay of this type is described in greater detail in Example 41
B-cells stimulated with cytokine Interleukin-4 (IL-4) activate the JAK/Stat pathway through phosphorylation of the JAK family kinases, JAK-1 and JAK-3, which in turn phosphorylate and activate the transcription factor Stat-6. […] To study the effect of inhibitors on the JAK family kinases, human Ramos B cells are stimulated with human IL-4.
The Ramos B-cell line was acquired from ATCC (ATCC Catalog No. CRL-1596). The cells were cultured in RPMI 1640 (Cellgro, MediaTech, Inc., Herndon, VA, Cat No. 10-040-CM) with 10% fetal bovine serum (FBS), heat inactivated (JRH Biosciences, Inc, Lenexa, Kansas, Cat No. 12106-500M) according to ATCC propagation protocol. Cells were maintained at a density of 3.5×10^5. The day before the experiment, Ramos B-cells were diluted to 3.5×10^5 cells/mL to ensure that they were in a logarithmic growth phase.
Cells were spun down and suspended in RPMI with 5% serum. 5×10^4 cells were used per point in a 96-well tissue culture plate. Cells were pre-incubated with compound or DMSO (Sigma-Aldrich, St. Louis, MO, Cat No. D2650) vehicle control for 1 hour in a 37° C. incubator. Cells were then stimulated with IL-4 (Peprotech Inc., Rocky Hill, NJ, Cat No. 200-04) for a final concentration of 50 units/mL for 20-24 hours. Cells were then spun down and stained with anti-CD23-PE(BD Pharmingen, San Diego, CA, Cat No. 555711) and analyzed by FACS. Detection was performed using a BD LSR I System Flow Cytometer, purchased from Becton Dickinson Biosciences of San Jose, California The IC50 calculated based on the results of this assay are provided in TABLE XII.

[1] = Homo sapiens, Ramos, Ramos B-cell line stimulated with IL-4, CD23 expression by FACS
[2] = Homo sapiens, Ramos, Ramos B cells stimulated with IL-4, CD23 expression by FACS
[3] = Ramos B-cell line stimulated with IL-4, CD23 expression by FACS
[4] = Ramos B cells stimulated with IL-4, CD23 expression by FACS

Compound: NS(=O)(=O)c1cccc(Nc2ncc(F)c(Nc3ccc(OCC(=O)N4CCOCC4)cc3)n2)c1 [Compound I-211, N2-(3-Aminosulfonylphenyl)-5-fluoro-N4-[4-(2-morpholin-4-yl-2-oxo-ethoxy)phenyl]-2,4-pyrimidinediamine]
pIC50 [1]: 5.98

Compound: CCN(CC)S(=O)(=O)c1cc(Nc2ncc(F)c(N(C)c3ccc(Cl)c(Cl)c3)n2)ccc1OC [VI-105, N4-(3,4-dichlorophenyl)-N4-methyl-5-fluoro-N2-[3-(N,N-diethyl)aminosulfonyl-4-methoxyphenyl]-2,4-pyrimidinediamine]
pIC50 [2]: 4.99

Compound: CN(C)C(=O)COc1ccc(Nc2nc(Nc3ccc(S(N)(=O)=O)cc3)ncc2F)cc1 [Compound I-128, N2-(4-Aminosulfonylphenyl)-N4-(4-dimethylaminocarbonylmethoxyphenyl)-5-fluoro-2,4-pyrimidinediamine]
pIC50 [1]: 6.06

Compound: CCN(CC)CCNS(=O)(=O)c1cccc(Nc2ncc(F)c(Nc3cccc(OCc4cccnc4)c3)n2)c1 [Compound I-187, N2-[3-(2-N,N-Diethylaminoethyl)aminosulfonylphenyl)-5-fluoro-N4-[3-(3-pyridinyl)methyleneoxyphenyl]-2,4-pyrimidinediamine]
pIC50 [3]: 5.54

Compound: CC(C)(Oc1ccc(Nc2nc(Nc3ccc(S(N)(=O)=O)cc3)ncc2F)cc1)C(N)=O [Compound I-125, N4-[4-(1-Aminocarbonyl-1-methyl)ethoxy]phenyl-N2-(4-aminosulfonyl)phenyl-5-fluoro-2,4-pyrimidinediamine]
pIC50 [3]: 6.27

Compound: N#CCOc1ccc(Nc2nc(Nc3cccc(S(N)(=O)=O)c3)ncc2F)cc1Cl [Compound I-42, N2-(3-Aminosulfonylphenyl)-N4-(3-chloro-4-cyanomethoxyphenyl)-5-fluoro-2,4-pyrimidinediamine]
pIC50 [1]: 7.62

Compound: COc1ccc(N(C)c2nc(Nc3ccc(C)c(S(N)(=O)=O)c3)ncc2F)cc1Cl [VI-19, N2-(3-Aminosulfonyl-4-methylphenyl)-N4-(3-chloro-4-methoxyphenyl)-5-fluoro-N4-methyl-2,4-pyrimidinediamine]
pIC50 [2]: 5.99

Compound: CNS(=O)(=O)c1ccc(Nc2ncc(F)c(Nc3cccc(O)c3)n2)cc1OC [VI-1, 5-Fluoro-N4-(3-hydroxyphenyl)-N2-[4-(N-methyl)aminosulfonyl-3-methoxyphenyl]-2,4-pyrimidinediamine]
pIC50 [2]: 6.69

Compound: Cc1ccc(Nc2ncc(F)c(Nc3ccc(CCNC(N)=O)cc3)n2)cc1S(N)(=O)=O [VI-71, N4-{4-[2-(Aminocarbonylamino)ethyl]phenyl}-N2-(3-aminosulfonyl-4-methylphenyl)-5-fluoro-2,4-pyrimidinediamine]
pIC50 [2]: 5.97

Compound: Cc1cc(COc2ccc(N(C)c3nc(Nc4ccc(C)c(S(N)(=O)=O)c4)ncc3F)cc2F)no1 [Compound I-226, N2-(3-Aminosulfonyl-4-methylphenyl)-5-fluoro-N4-[3-fluoro-4-(5-methylisoxazol-3-yl)methyleneoxyphenyl]-N4-methyl-2,4-pyrimidinediamine]
pIC50 [3]: 6.30

Compound: CCOc1cc(Nc2nc(Nc3ccc(C)c(S(=O)(=O)NC)c3)ncc2F)ccc1-c1ccccn1 [Compound I-170, 5-Fluoro-N2-[3-N-(methyl)aminosulfonyl-4-methylphenyl]-N4-[4-(2-pyridinyl)-3-methylmethyleneoxyphenyl]-2,4-pyrimidinediamine]
pIC50 [3]: 6.35

Compound: NC(=O)COc1ccc(Nc2nc(Nc3cccc(S(N)(=O)=O)c3)ncc2F)cc1 [Compound I-111, N4-(4-Aminocarbonylmethoxy)phenyl-N2-(3-aminosulfonyl)phenyl-5-fluoro-2,4-pyrimidinediamine]
pIC50 [3]: 6.05

Compound: CNS(=O)(=O)c1ccc(Nc2ncc(F)c(Nc3cccc(O)c3)n2)cc1OC [Compound I-270]
pIC50 [3]: 6.11

Compound: C#CCOc1ccc(Nc2nc(Nc3ccc(C)c(S(=O)(=O)NC(=O)CC)c3)ncc2F)cc1 [VI-56, 5-Fluoro-N2-(4-methyl-3-propionylaminosulfonylphenyl)-N4-[4-(prop-2-ynyloxy)phenyl]-2,4-pyrimidinediamine]
pIC50 [4]: 5.02

Compound: Cc1ccc(Nc2ncc(F)c(Nc3ccc4nc(N(C)C)ccc4c3)n2)cc1S(N)(=O)=O [VII-75, N2-(3-Aminosulfonyl-4-methylphenyl)-N4-(2-N,N′-dimethylamine-quinolin-6-yl)-5-fluoro-2,4-pyrimidinediamine]
pIC50 [4]: 6.26

Compound: CCN(CC)S(=O)(=O)c1ccc(OC)c(Nc2nc(Nc3ccc4c(c3)NC(=O)C(C)(C)O4)cc(C(=O)OC)n2)c1 [Compound X-2]
pIC50 [2]: 5.73

Compound: CNS(=O)(=O)c1cc(Nc2ncc(F)c(Nc3ccc(Oc4cccnc4)cc3)n2)ccc1C [II-13, 5-Fluoro-N2-[3-N-(methylaminosulfonyl)-4-methylphenyl]-N4-[4-(3-pyridyloxy)phenyl]-2,4-pyrimidinediamine]
pIC50 [3]: 6.49

Compound: N2-(3-aminosulfonyl-4-methyl)phenyl-5-fluoro-N4-(4-thiomethylcarbonyl)phenyl-2,4-pyrimidinediamine [VI-95]
pIC50 [4]: 6.00

Compound: Cc1ccc(Nc2ncc(F)c(Nc3ccc(OCc4n[nH]c(=O)[nH]4)cc3)n2)cc1S(N)(=O)=O [Compound I-202, N2-(3-Aminosulfonyl-4-methylphenyl)-5-fluoro-N4-[4-(2,4-dihydro-3-oxo-1,2,4-triazol-5-yl)methyleneoxyphenyl]-2,4-pyrimidinediamine]
pIC50 [3]: 5.51

Compound: NS(=O)(=O)c1cccc(Nc2ncc(F)c(Nc3ccc(OCCN4CCOCC4)cc3)n2)c1 [Compound I-206]
pIC50 [3]: 6.14

Compound: COc1ccc(Nc2nc(Nc3cccc(S(N)(=O)=O)c3)ncc2C#C[Si](C)(C)C)cc1Cl [VI-28, N2-(3-Aminosulfonylphenyl)-N4-(3-chloro-4-methoxyphenyl)-5-trimethylsilylacetylene-2,4-pyrimidinediamine]
pIC50 [4]: 6.12

Second part, the compound after the results:

pIC50 [4]: 6.02
Compound: CN1C(=O)C(C)(C)S(=O)(=O)c2ccc(Nc3nc(Nc4ccc(S(N)(=O)=O)cc4)ncc3F)cc21 [VII-46, N2-(4-Aminosulphonylphenyl)-5-fluoro-N4-(2,2,4-trimethyl-1,1,3-trioxo-benzo[1,4]thiazin-6-yl)-2,4-pyrimidinediamine]

pIC50 [2]: 5.69
Compound: Cc1ccc2cccc(Nc3nc(Nc4ccc(C)c(S(N)(=O)=O)c4)ncc3F)c2n1 [VII-80, N2-(3-Aminosulfonyl-4-methylphenyl)-5-fluoro-N4-(2-methylquinolin-8-yl)-2,4-pyrimidinediamine]

pIC50 [4]: 6.94
Compound: CNS(=O)(=O)c1cc(Nc2ncc(F)c(NCCc3ccc(-n4ccnc4)cc3)n2)ccc1C [III-89, 5-Fluoro-N2-[3-(N-methylaminosulfony)-4-methylphenyl]-N4-[4-(1-imidazolyl)phenethyl]-2,4-pyrimidinediamine]

pIC50 [2]: 5.51
Compound: Cc1ccc2cccc(Nc3nc(Nc4cccc(S(N)(=O)=O)c4)ncc3F)c2n1 [VII-81, N2-(3-Aminosulfonylphenyl)-5-fluoro-N4-(2-methylquinolin-8-yl)-2,4-pyrimidinediamine]

pIC50 [1]: 5.84
Compound: C=CC(=O)NCc1ccc(Nc2nc(Nc3ccc(S(N)(=O)=O)cc3)ncc2F)cc1 [III-44, N4-(4-Acrylamidomethylphenyl)-N2-(4-aminosulfonylphenyl)-5-fluoro-2,4-pyrimidinediamine]

pIC50 [4]: 5.80
Compound: Cc1cc(COc2ccc(Nc3nc(Nc4ccc5c(c4)S(=O)(=O)NC5=O)ncc3F)cc2)no1 [VIII-1, 5-Fluoro-N4-[4-(5-methylisoxazol-3-yl)methyleneoxyphenyl]-N2-(sacchrin-6-yl)-2,4-pyrimidinediamine]

pIC50 [3]: 6.75
Compound: NC(=O)CCc1ccc(Nc2nc(Nc3ccc(S(N)(=O)=O)cc3)ncc2F)cc1 [III-49, N4-[4-(2-Aminocarboxylethylene)phenyl]-N2-(4-aminosulfonylphenyl)-5-fluoro-2,4-pyrimidinediamine]

pIC50 [4]: 5.57
Compound: NC(=O)NCc1cccc(Nc2nc(Nc3cccc(S(N)(=O)=O)c3)ncc2F)c1 [III-114, N4-(3-aminocarbonylaminomethyl)phenyl-N2-(3-aminosulfonyl)phenyl-5-fluoro-2,4-pyrimidinediamine]

pIC50 [3]: 5.71
Compound: CCN(CC)CCNS(=O)(=O)c1ccc(Nc2ncc(F)c(Nc3ccc(Cc4ccncc4)cc3)n2)cc1 [III-72, N2-[4-(2-N,N-Diethylaminoethyl)aminosulfonylphenyl)-5-fluoro-N4-[4-(4-pyridinylmethyl)phenyl]-2,4-pyrimidinediamine]
